In patent publication US8394376B2, “Therapeutic agents for alzheimer's disease and cancer” (The University of Tokyo, priority 2006, dated 2013):

Tests used:
A549 cells = assay: Cell viability by the MTT method; type: cell-based, human; settings: final concentration 100 μM, 72 hours, vs untreated, FIG. 12
Procedure: HeLa cells or A549 cells (5×10^3 cells) were inoculated onto a 96-well multiplate and treated with DAPT (final concentration: 100 μM) for 72 hours. After the 72-hour treatment, MTT diluted with PBS was added to the plate so that the final MTT concentration was 500 μg/mL, followed by culturing at 37° C. for three to four hours. Thereafter, stop solution (10% SDS, 0.01 M HCl) was added to the plate for termination of reaction, and the plate was allowed to stand still at 37° C. overnight, followed by dissolution of produced formazan. The formazan solution was uniformly mixed through pipetting, and absorbance was measured at 550 nm, to thereby calculate cell viability. […] Subsequently, in order to confirm that this reduction in cell viability was attributed to inhibition of γ-secretase activity, endogenous nicastrin of A549 cells was knocked down through treatment with nicastrin-corresponding short interference RNA (siRNA), and change in cell viability was determined. […]
Subsequently, the effect of the above-prepared antibodies on survival of A549 cells was examined. Each of the antibodies was added to A549 cells so that the final antibody concentration was 10 μg/mL, and, 96 hours after addition of the antibody, cell viability was determined through the MTT method.

HeLa cells = assay: Cell viability by the MTT method; type: cell-based, human; settings: final concentration 100 μM, 72 hours, vs untreated, FIG. 12
Procedure: HeLa cells or A549 cells (5×10^3 cells) were inoculated onto a 96-well multiplate and treated with DAPT (final concentration: 100 μM) for 72 hours. After the 72-hour treatment, MTT diluted with PBS was added to the plate so that the final MTT concentration was 500 μg/mL, followed by culturing at 37° C. for three to four hours. Thereafter, stop solution (10% SDS, 0.01 M HCl) was added to the plate for termination of reaction, and the plate was allowed to stand still at 37° C. overnight, followed by dissolution of produced formazan. The formazan solution was uniformly mixed through pipetting, and absorbance was measured at 550 nm, to thereby calculate cell viability. […] Subsequently, in order to confirm that this reduction in cell viability was attributed to inhibition of γ-secretase activity, endogenous nicastrin of A549 cells was knocked down through treatment with nicastrin-corresponding short interference RNA (siRNA), and change in cell viability was determined. As a result, in the case of treatment with nicastrin siRNA, cell viability was reduced by about 20%, as compared with the case of treatment with siRNA having a random sequence (scramble) (FIG. 13).

HEK/SC100G cells = assay: GAL4-UAS luciferase reporter assay in living cells; type: cell-based; settings: final concentration 10 μM
Excerpt: A preproenkephalin-derived signal peptide was inserted into C99, and GAL4 (i.e., a yeast-derived transcription factor) was inserted immediately downstream of the transmembrance domain of C99, to thereby prepare a construct (SC100G). The construct (SC100G) was subcloned into pcDNA3.1/Hygro vector (Invitroger).
A UAS sequence was inserted upstream of luciferase in pGL3(R2.2) vector (Promega), to thereby prepare a construct (UAS-luc), and the construct was employed as a reporter construct. eGFP was subcloned into pcDNA3 (Invitrogen), and the thus-prepared pcDNA3-eGFP was employed as a control vector for monitoring the number of cells. […]
(§1) HEK/SC100G cells or HEK/NΔEGV cells were inoculated into a 48-well multiplate (2.5×10^4 cells). […] After culturing for 12 hours, cells and a culture supernatant were recovered, and the amount of Aβ was determined through a reporter assay or ELISA.
(§2) The recovered cells were lysed in a lysis buffer (Promega), and the resultant lysate was subjected to the reporter assay. […] The amount of luciferase luminescence was normalized by the concentration of protein (in the case of HEK/SC100G cells), or by the amount of eGFP luminescence (in the case of HEK/NΔEGV cells), to thereby yield relative light unit (RLU). […]

HEK/NΔEGV cells = assay: GAL4-UAS luciferase reporter assay in living cells; type: cell-based; settings: final concentration 10 μM
Excerpt: GAL4/VP16 was bound to NΔE (including N99), in which deletion occurs in the extracellular domain of Notch receptor and which serves as a direct substrate for γ-secretase in a ligand-independent manner, to thereby prepare a construct (NΔEGV, Taniguchi Y., Karlstrom K., Lundkvist J., Mizutani T., Otaka A., Vestling M., Bernstein A., Donoviel D., Lendahl U., Honjo T.: Notch receptor cleavage depends on but is not directly executed by presenilins. Proc. Natl. Acad. Sci. U.S.A 2002, 99: 4014). The construct (NΔEGV) was subcloned into pcDNA3.1 vector (pcDNA3.1-NΔEGV). […]
as §1, §2

C[C@H](NC(=O)Cc1cc(F)cc(F)c1)C(=O)N[C@H](C(=O)OC(C)(C)C)c1ccccc1 [DAPT]
cell viability (A549 cells): significantly lower | cell viability (HeLa cells): no significant difference | reporter activity (HEK/SC100G cells): inhibit reporter activity | reporter activity (HEK/NΔEGV cells): inhibit reporter activity
